Two compounds from patent US20260224566A1, “Obicetrapib and Ezetimibe Combination Treatment and Fixed Dose Pharmaceutical Compositions” (NewAmsterdam Pharma B.V., priority 2023, published 2026) can be followed below.

Counter-ions that a name gives are not always drawn.

What all share (type): physicochemical
Data set [1] is described as follows: Stability study at 70° C./75% RH, open vial (physical stability by XRPD, chemical purity by HPLC). The note with it: 75% relative humidity. The text has this: FIG. 54 is a plot of x-ray powder diffraction pattern taken of crystalline obicetrapib hemicalcium, and FIG. 55 is a plot of x-ray powder diffraction patterns taken of crystalline obicetrapib hemicalcium under stress conditions. In FIG. 55, there are four diffraction patterns shown based on stability study set forth in Example 11.27. Pattern 1 is an x-ray powder diffraction pattern of a sample of amorphous obicetrapib hemicalcium. Pattern 2 is the x-ray powder diffraction pattern of a sample of crystalline obicetrapib hemicalcium. In pattern 3, the sample of crystalline obicetrapib hemicalcium was exposed to 70° C. at 75% relative humidity for one day. […] Pattern 1 was taken before the sample was placed on stability.
Stability study was conducted on crystalline and amorphous forms of obicetrapib at 70° C./75% relative humidity (RH). The solids were placed into a 4.0 ml glass vial without caps (open condition) and stored at 70° C./75% RH. […] The solids were analyzed by XRPD for physical stability and by HPLC for chemical purity. The sample collected at each time point was dissolved in methanol before HPLC analysis. In order to minimize the effect of potential analyte adsorption on the filter, the initial 0.5 mL of supernatant passing through the filter was discarded prior to collecting sample for HPLC analysis. Purity for each sample was determined based on peak area percent and compared to the sample at T=0.

Data set [2] in a line: Kinetic solubility in FeSSIF (pH 5.0) at 37° C. Particulars: as obicetrapib free acid. The text has this:
(§1) The amorphous form has a higher kinetic solubility and dissolution rate than the crystalline form (and by extension obicetrapib itself). Both crystalline and amorphous obicetrapib hemicalcium kinetic solubility determinations were made in biorelevant media at different pHs, namely at about 5.0 (FeSSIF conditions) and at pH of about 6.5 (FaSSIF) conditions as set forth in Example 11.28.
The concentrations in Table W are those of obicetrapib (i.e., the free acid).
(§2) The solids were magnetically stirred at 600 RPM in a shaker bath and samples were drawn with a 1.0 ml syringe at T=15 mins, 30 mins, 60 mins, 90 mins and 120 mins. The solubility was measured using HPLC method provided by the client. The compound was added to 4.0 ml glass vials at approximately 20.0 mg/ml. Samples were agitated with a vortex mixer for about 5 minutes to ensure the presence of undissolved excess powder. The sample collected at each time point was centrifuged at 1200 RPM, filtered with 0.45 μm Polytetrafluoroethylene (PTFE) filters and diluted with methanol before HPLC analysis. In order to minimize the effect of potential analyte adsorption on the filter, the initial 0.5 mL of supernatant passing through the filter was discarded prior to collecting sample for HPLC analysis.

Data set [3] can be described thus: Kinetic solubility in FaSSIF (pH 6.5) at 37° C. The note with it: as obicetrapib free acid.
Description: as §1
The concentrations in Table X are those of obicetrapib (i.e., the free acid).
as §2

Where [4] appears, read: 15 mins, listed as Amorphous obicetrapib hemicalcium Batch #1.
[5] abbreviates: 15 mins, listed as Amorphous obicetrapib hemicalcium Batch #2.
Where [6] appears, read: 30 mins, listed as Amorphous obicetrapib hemicalcium Batch #1.
Setting [7] is: 30 mins, listed as Amorphous obicetrapib hemicalcium Batch #2.
Setting [8] is: 60 mins, listed as Amorphous obicetrapib hemicalcium Batch #1.
[9] abbreviates: 60 mins, listed as Amorphous obicetrapib hemicalcium Batch #2.
Where [10] appears, read: 90 mins, listed as Amorphous obicetrapib hemicalcium Batch #1.
[11] abbreviates: 90 mins, listed as Amorphous obicetrapib hemicalcium Batch #2.
Where [12] appears, read: 120 mins, listed as Amorphous obicetrapib hemicalcium Batch #1.
[13] abbreviates: 120 mins, listed as Amorphous obicetrapib hemicalcium Batch #2.

Consider `CCOC(=O)N1c2ccc(C(F)(F)F)cc2[C@@H](N(Cc2cc(C(F)(F)F)cc(C(F)(F)F)c2)c2ncc(OCCCC(=O)O)cn2)C[C@H]1CC` [amorphous obicetrapib hemicalcium, amorphous hemicalcium salt of (2R,4S)-4-{[3,5-bis(trifluoromethyl)benzyl]-[5-(3-carboxypropoxy)pyrimidin-2-yl]amino}-2-ethyl-6-trifluoromethyl-3,4-dihydro-2H-quinoline-1-carboxylic acid ethyl ester], for which the “physical stability by XRPD” value in data set [1] (7 days) and in data set [1] (14 days) was “remained amorphous” throughout. Further, the “Concentration in Solution” value was determined as 520 µg/mL in data set [2] (setting [4]); 502 µg/mL in data set [2] (setting [5]); 661 µg/mL in data set [2] (setting [6]); 618 µg/mL in data set [2] (setting [7]); 675 µg/mL in data set [2] (setting [8]); 628 µg/mL in data set [2] (setting [9]). The “Concentration in Solution” value in data set [2] (setting [10]) was 696 µg/mL; in data set [2] (setting [11]) it was 658 µg/mL; in data set [2] (setting [12]) it was 675 µg/mL; in data set [2] (setting [13]), 642 µg/mL; in data set [3] (setting [4]), 60 µg/mL; in data set [3] (setting [5]), 90 µg/mL. The “Concentration in Solution” value in data set [3] (setting [6]) was 99 µg/mL; in data set [3] (setting [7]), 140 µg/mL; in data set [3] (setting [8]), 163 µg/mL; in data set [3] (setting [9]), 229 µg/mL; in data set [3] (setting [10]), 201 µg/mL; in data set [3] (setting [11]) it was 293 µg/mL. Besides, the figures for the “Concentration in Solution” value in data set [3] (setting [12]) and in data set [3] (setting [13]) were 244 µg/mL and 387 µg/mL, respectively.

In the case of `CCOC(=O)N1c2ccc(C(F)(F)F)cc2[C@@H](N(Cc2cc(C(F)(F)F)cc(C(F)(F)F)c2)c2ncc(OCCCC(=O)[O-])cn2)C[C@H]1CC.CCOC(=O)N1c2ccc(C(F)(F)F)cc2[C@@H](N(Cc2cc(C(F)(F)F)cc(C(F)(F)F)c2)c2ncc(OCCCC(=O)[O-])cn2)C[C@H]1CC.[Ca+2]` [crystalline obicetrapib hemicalcium, reference compound], the “physical stability by XRPD” value in data set [1] (7 days) was “the result remains the same”; in data set [1] (one day) it was “near total loss of crystallinity”.
